For this test, the target named is T1, Gag-Pol polyprotein [600-1027,Y787L]/[600-1155,Y787L] (Human immunodeficiency virus 1, UniProt P03366, Y787L).
T1 construct: 600-1027; 600-1155
Description: HIV-1 RT Assay.

Usually IC50 stands for the concentration that gives 50% inhibition.

`CCN1c2ncc(CCc3cccc(NS(C)(=O)=O)c3)cc2C(=O)N(C)c2ccc(Cl)nc21` [N-[3-(2-{5-chloro-2-ethyl-9-methyl-10-oxo-2,4,9,15-tetraazatricyclo[9.4.0.0^{3,8}]pentadeca-1(15),3(8),4,6,11,13-hexaen-13-yl}ethyl)phenyl]methanesulfonamide] came in with an IC50 of over 1000 nM.
Compound `CCN1c2ncc(CCc3ccc4ccccc4c3)cc2C(=O)N(C)c2cccnc21` [2-ethyl-9-methyl-13-[2-(naphthalen-2-yl)ethyl]-2,4,9,15-tetraazatricyclo[9.4.0.0^{3,8}]pentadeca-1(15),3(8),4,6,11,13-hexaen-10-one] had an IC50 of over 1000 nM.
To `CCN1c2ncc(CCc3ccccc3C)cc2C(=O)N(C)c2cccnc21` [2-ethyl-9-methyl-13-[2-(2-methylphenyl)ethyl]-2,4,9,15-tetraazatricyclo[9.4.0.0^{3,8}]pentadeca-1(11),3,5,7,12,14-hexaen-10-one] belongs over 1000 nM; to `CCN1c2ncc(CCc3ccc4ccccc4c3)cc2C(=O)N(C)c2ccc(F)nc21` [2-ethyl-5-fluoro-9-methyl-13-[2-(naphthalen-2-yl)ethyl]-2,4,9,15-tetraazatricyclo[9.4.0.0^{3,8}]pentadeca-1(15),3(8),4,6,11,13-hexaen-10-one], over 1000 nM.
To `CCN1c2ncc(CCc3ccnc(C)c3)cc2C(=O)N(C)c2cccnc21` [2-ethyl-9-methyl-13-[2-(2-methylpyridin-4-yl)ethyl]-2,4,9,15-tetraazatricyclo[9.4.0.0^{3,8}]pentadeca-1(15),3(8),4,6,11,13-hexaen-10-one] belongs over 1000 nM.
Consider `CCN1c2ncc(CCc3ccncc3)cc2C(=O)N(C)c2ccc(C#N)nc21` [2,8-Disubstituted Dipyridodiazepinone 38], for which the IC50 was over 1000 nM.
The value for `CCN1c2ncc(CCc3cccc(C)c3)cc2C(=O)N(C)c2ccc(Cl)nc21` [5-chloro-2-ethyl-9-methyl-13-[2-(3-methylphenyl)ethyl]-2,4,9,15-tetraazatricyclo[9.4.0.0^{3,8}]pentadeca-1(15),3(8),4,6,11,13-hexaen-10-one] was over 1000 nM; that for `CCN1c2ncc(CCc3ccc(C)cc3)cc2C(=O)N(C)c2ccc(Cl)nc21` [5-chloro-2-ethyl-9-methyl-13-[2-(4-methylphenyl)ethyl]-2,4,9,15-tetraazatricyclo[9.4.0.0^{3,8}]pentadeca-1(15),3(8),4,6,11,13-hexaen-10-one] was over 1000 nM.
As to `CCN1c2ncc(CCc3ccc(N)cc3)cc2C(=O)N(C)c2cccnc21` [13-[2-(4-aminophenyl)ethyl]-2-ethyl-9-methyl-2,4,9,15-tetraazatricyclo[9.4.0.0^{3,8}]pentadeca-1(15),3(8),4,6,11,13-hexaen-10-one], the IC50 is over 1000 nM.
Regarding `CCN1c2ncc(CCc3ccnc(C(=O)O)c3)cc2C(=O)N(C)c2ccc(Cl)nc21` [2-Chloro-5,11-dihydro-11-ethyl-5-methyl-8-[2-(2-carboxypyrid-4-yl)ethyl]-6H-dipyrido[3,2-b:2 ,3-e][1,4]diazepin-6-one], the IC50 is over 1000 nM.
To `CCN1c2ncc(CCc3ccc(NS(C)(=O)=O)cc3)cc2C(=O)N(C)c2ccc(Cl)nc21` [N-[4-(2-{5-chloro-2-ethyl-9-methyl-10-oxo-2,4,9,15-tetraazatricyclo[9.4.0.0^{3,8}]pentadeca-1(15),3(8),4,6,11,13-hexaen-13-yl}ethyl)phenyl]methanesulfonamide] belongs over 1000 nM; to `CCN1c2ncc(CCc3ccccc3N)cc2C(=O)N(C)c2cccnc21` [13-[2-(2-aminophenyl)ethyl]-2-ethyl-9-methyl-2,4,9,15-tetraazatricyclo[9.4.0.0^{3,8}]pentadeca-1(15),3(8),4,6,11,13-hexaen-10-one], over 1000 nM.
To `CCN1c2ncc(CCc3ccnc(CO)c3)cc2C(=O)N(C)c2ccc(Cl)nc21` [5-chloro-2-ethyl-13-{2-[2-(hydroxymethyl)pyridin-4-yl]ethyl}-9-methyl-2,4,9,15-tetraazatricyclo[9.4.0.0^{3,8}]pentadeca-1(15),3(8),4,6,11,13-hexaen-10-one] belongs over 1000 nM.
